According to US12661415B2, “Isoindolinone compounds and imaging agents for imaging Huntingtin protein” (CHDI Foundation, Inc., priority 2021, dated 2026):
Entries after “also recorded” stand apart in the source; their conditions may differ.

Legend:
mHTT aggregates [1] = experiment: In situ autoradiography (ARG) binding, human post-mortem brain sections; details: for specific HD binding at 0.3 nM radioligand: human HD brain sections
From the text: In situ autoradiography (ARG) was used to investigate the pharmacological binding characteristics of a tritium-labeled Compound 1-6 (“[^3H]-Compound 1-6”) in the HD mouse model 12-month-old HOM zQ175 and human post-mortem brains from healthy and HD gene-expanded carriers (HDGECs); specificity of binding was explored by including samples from Alzheimer's disease (AD) patients, which contain other pathological aggregates (e.g., Abeta-containing plaques and phosphor-Tau-expressing tangles). Saturation binding experiments were performed in coronal brain sections; [^3H]-Compound 1-6 binding was quantified by densitometric analysis and specific binding was determined in cortex (CTX). Affinity (KD) and maximum number of binding sites (Bmax) were determined for each region of interest (ROI).
The non-fixed and non-embedded frozen brains were sectioned by using a cryostat at −18° C. Thereby, serial coronal tissue sections of 20 μm thickness were mounted on superfrost slides and dried at room temperature for approximately 90 minutes. The slides were stored at −80° C. until the different experiments were conducted, but not longer than 3 weeks. A similar procedure was conducted with fresh-frozen human post-mortem brain blocks (healthy subjects {CTRL}, Huntingon's disease {HD}, and Alzheimer's disease {AD}).
The appropriate number of slides containing the respective tissue sections were acclimated to room temperature for 30 minutes. The slides were then pre-incubated by immersion into 40 mL assay buffer for 20 minutes at room temperature. Following this pre-incubation step, one slide per animal was incubated by immersion into 30 mL of the 10 nM, 3 nM, 1 nM, 0.3 nM, 0.1 nM, 0.03 nM, 0.01 nM, or 0.003 nM Compound 1-6 solutions and one slide was incubated by immersion into 30 mL of 10 nM, 3 nM, 1 nM, 0.3 nM, 0.1 nM, 0.03 nM, 0.01 nM, or 0.003 nM [^3H]-Compound 1-6, plus 10 μM unlabeled Compound 1-6 solutions for 60 minutes at room temperature, respectively. A similar paradigm was performed with tritium-labeled Comparative Compound 3 (“[^3H]-Comparative Compound 3”) and tritium-labeled Comparative Compound 4 (“[^3H]-Comparative Compound 4”). Structures of these comparative compounds and compound 1-6 are shown below.
Afterwards, the slides were washed three times for 10 minutes with 200 mL of ice cold washing buffer at 4° C. and dipped for three seconds in ice cold distilled water to remove buffer salts. The slides were dried for three hours at 30° C. and exposed for 96 hours to Fuji BAS-TR 2015 tritium phosphor screens together with the calibrated tritium standards ART 0123C and ART 0123B. Stored radiation energy on the screen was scanned using the phosphorimager Typhoon FLA 7000.
Densitometric data analysis was performed using the MCID Analysis 7.1 software (Interfocus Imaging Ltd.). Within each brain section, regions of interest (ROI) were defined for STR, CTX, and HPC by using appropriate sample tools, and the software calculated density measures from the gray level values of all pixels within a defined ROI (Molecular dynamics counts per unit area, MDC/mm^2). Densitometric calibration related the optical densities to known concentrations of radioactivity from the calibrated tritium standards (fmol/mg tissue) and mean values were calculated for each ROI of the individual brains. Total binding (TB) and non-specific binding (NSB) of the radioligand were quantified, and specific binding (SB) was derived by subtracting NSB from TB (SB=TB−NSB) for each brain and ROI, respectively. Subsequently, the group mean±standard deviation (SD) was calculated for each ROI and experimental condition. The data were fitted to one-site binding equation using non-linear regression method in GraphPad Prism Software.

mHTT aggregates [2] = biological target: mHTT aggregates (Mus musculus, UniProt P42859); experiment: In situ autoradiography (ARG) saturation binding, HOM zQ175 HD mouse model brain sections; details: for Bmax: 12-month-old HOM zQ175, tritium-labeled radioligand
Chain of mHTT aggregates (Mus musculus, UniProt P42859) (P42859 whole entry): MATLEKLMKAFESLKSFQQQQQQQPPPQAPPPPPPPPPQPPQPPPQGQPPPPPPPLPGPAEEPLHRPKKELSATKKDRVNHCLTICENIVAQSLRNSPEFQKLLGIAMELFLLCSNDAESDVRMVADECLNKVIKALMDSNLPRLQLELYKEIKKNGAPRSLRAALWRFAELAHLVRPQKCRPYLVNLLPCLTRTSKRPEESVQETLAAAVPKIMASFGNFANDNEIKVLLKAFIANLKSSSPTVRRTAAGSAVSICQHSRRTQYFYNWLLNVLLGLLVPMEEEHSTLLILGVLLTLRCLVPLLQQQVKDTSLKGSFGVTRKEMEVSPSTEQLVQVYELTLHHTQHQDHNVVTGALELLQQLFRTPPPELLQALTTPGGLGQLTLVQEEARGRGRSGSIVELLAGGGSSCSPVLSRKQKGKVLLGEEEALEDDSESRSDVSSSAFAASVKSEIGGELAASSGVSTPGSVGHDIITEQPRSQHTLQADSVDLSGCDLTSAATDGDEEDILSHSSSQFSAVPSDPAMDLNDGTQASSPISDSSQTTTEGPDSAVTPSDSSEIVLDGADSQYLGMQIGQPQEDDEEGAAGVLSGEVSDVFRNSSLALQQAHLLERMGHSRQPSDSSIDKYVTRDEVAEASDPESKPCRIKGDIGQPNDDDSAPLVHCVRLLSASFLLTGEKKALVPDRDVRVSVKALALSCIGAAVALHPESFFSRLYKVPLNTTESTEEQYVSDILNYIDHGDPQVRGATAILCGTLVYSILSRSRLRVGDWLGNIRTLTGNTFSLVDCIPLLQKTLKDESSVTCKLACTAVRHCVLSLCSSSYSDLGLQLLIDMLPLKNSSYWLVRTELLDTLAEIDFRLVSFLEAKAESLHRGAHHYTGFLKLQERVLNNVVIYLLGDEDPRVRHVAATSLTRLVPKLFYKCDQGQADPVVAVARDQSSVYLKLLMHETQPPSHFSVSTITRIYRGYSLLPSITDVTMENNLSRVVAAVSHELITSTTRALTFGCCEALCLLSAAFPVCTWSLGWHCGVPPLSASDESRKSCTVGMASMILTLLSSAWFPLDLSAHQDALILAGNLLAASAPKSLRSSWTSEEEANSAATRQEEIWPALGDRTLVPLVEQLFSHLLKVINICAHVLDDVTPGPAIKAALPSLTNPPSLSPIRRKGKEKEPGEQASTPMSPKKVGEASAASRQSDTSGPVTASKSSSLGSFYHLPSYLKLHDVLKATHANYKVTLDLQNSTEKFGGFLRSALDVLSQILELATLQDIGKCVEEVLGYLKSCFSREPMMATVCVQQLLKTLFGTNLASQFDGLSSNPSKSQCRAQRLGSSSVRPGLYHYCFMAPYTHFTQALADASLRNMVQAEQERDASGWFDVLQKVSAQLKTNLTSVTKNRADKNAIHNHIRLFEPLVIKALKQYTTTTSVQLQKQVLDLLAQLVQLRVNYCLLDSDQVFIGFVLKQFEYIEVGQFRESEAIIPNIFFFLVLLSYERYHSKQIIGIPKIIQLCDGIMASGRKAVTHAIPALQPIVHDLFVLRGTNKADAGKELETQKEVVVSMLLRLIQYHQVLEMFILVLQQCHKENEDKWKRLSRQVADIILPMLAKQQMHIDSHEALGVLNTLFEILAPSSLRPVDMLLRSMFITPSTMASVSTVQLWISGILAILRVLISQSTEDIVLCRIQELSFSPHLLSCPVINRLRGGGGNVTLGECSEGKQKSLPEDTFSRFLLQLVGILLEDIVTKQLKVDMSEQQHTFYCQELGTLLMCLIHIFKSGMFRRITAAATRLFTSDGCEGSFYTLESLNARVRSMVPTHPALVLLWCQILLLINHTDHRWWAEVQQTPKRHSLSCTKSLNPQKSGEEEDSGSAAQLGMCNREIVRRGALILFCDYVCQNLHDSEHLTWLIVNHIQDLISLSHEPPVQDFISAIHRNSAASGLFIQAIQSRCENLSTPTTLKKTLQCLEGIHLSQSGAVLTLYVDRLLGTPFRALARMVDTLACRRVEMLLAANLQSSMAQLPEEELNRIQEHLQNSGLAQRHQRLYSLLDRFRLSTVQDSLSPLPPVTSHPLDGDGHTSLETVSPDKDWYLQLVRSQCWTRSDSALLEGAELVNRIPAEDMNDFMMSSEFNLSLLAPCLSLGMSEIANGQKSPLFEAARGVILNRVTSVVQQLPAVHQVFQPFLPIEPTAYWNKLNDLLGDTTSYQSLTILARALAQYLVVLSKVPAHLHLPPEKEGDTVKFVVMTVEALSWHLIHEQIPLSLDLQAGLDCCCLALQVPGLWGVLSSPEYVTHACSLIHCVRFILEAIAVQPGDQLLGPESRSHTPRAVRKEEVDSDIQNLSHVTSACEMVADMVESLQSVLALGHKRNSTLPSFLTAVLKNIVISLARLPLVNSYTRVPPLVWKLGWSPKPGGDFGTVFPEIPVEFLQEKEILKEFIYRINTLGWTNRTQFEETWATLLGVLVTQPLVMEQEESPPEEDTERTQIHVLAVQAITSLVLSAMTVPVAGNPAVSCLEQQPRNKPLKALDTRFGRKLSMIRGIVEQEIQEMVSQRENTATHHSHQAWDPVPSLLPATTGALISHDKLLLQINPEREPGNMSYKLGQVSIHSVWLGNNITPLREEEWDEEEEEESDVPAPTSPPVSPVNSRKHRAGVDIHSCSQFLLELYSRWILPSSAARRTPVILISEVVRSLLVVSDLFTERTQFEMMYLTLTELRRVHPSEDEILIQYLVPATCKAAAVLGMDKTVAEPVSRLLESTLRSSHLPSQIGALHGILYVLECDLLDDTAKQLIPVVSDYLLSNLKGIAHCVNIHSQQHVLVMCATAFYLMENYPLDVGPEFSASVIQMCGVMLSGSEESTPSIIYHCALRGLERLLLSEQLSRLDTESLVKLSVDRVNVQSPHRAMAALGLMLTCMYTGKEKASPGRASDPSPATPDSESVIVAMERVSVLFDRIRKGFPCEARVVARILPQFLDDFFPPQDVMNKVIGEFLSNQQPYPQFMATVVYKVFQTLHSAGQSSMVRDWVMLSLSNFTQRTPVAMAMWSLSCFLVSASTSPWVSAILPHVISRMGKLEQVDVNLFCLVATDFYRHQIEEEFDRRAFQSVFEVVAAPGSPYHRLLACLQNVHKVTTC
From the text: In situ autoradiography (ARG) was used to investigate the pharmacological binding characteristics of a tritium-labeled Compound 1-6 (“[^3H]-Compound 1-6”) in the HD mouse model 12-month-old HOM zQ175 and human post-mortem brains from healthy and HD gene-expanded carriers ([…]); specificity of binding was explored by including samples from Alzheimer's disease (AD) patients, which contain other pathological aggregates (e.g., Abeta-containing plaques and phosphor-Tau-expressing tangles). Saturation binding experiments were performed in coronal brain sections; [^3H]-Compound 1-6 binding was quantified by densitometric analysis and specific binding was determined in cortex (CTX). Affinity (KD) and maximum number of binding sites (Bmax) were determined for each region of interest (ROI). At the appropriate ages, HD and WT mice of the different strains were sacrificed by cervical dislocation, and the brains, including cerebellum, were dissected and washed in ice cold PBS. Subsequently, the brains were patted dry on paper towels and transferred into a 6-well plate filled with isopentane that was cooled to a temperature between -30° C. and -40° C. The frozen brains were stored at -80° C. until sectioning. The non-fixed and non-embedded frozen brains were sectioned by using a cryostat at -18° C. Thereby, serial coronal tissue sections of 20 μm thickness were mounted on superfrost slides and dried at room temperature for approximately 90 minutes. The slides were stored at -80° C. until the different experiments were conducted, but not longer than 3 weeks. A similar procedure was conducted with fresh-frozen human post-mortem brain blocks (healthy subjects {CTRL}, Huntingon's disease {HD}, and Alzheimer's disease {AD}). The appropriate number of slides containing the respective tissue sections were acclimated to room temperature for 30 minutes. The slides were then pre-incubated by immersion into 40 mL assay buffer for 20 minutes at room temperature. […] Within each brain section, regions of interest (ROI) were defined for STR, CTX, and HPC by using appropriate sample tools, and the software calculated density measures from the gray level values of all pixels within a defined ROI (Molecular dynamics counts per unit area, MDC/mm^2). Densitometric calibration related the optical densities to known concentrations of radioactivity from the calibrated tritium standards (fmol/mg tissue) and mean values were calculated for each ROI of the individual brains. Total binding (TB) and non-specific binding (NSB) of the radioligand were quantified, and specific binding (SB) was derived by subtracting NSB from TB (SB=TB-NSB) for each brain and ROI, respectively. Subsequently, the group mean±standard deviation (SD) was calculated for each ROI and experimental condition. […]

SMILES	specific HD binding at 0.3 nM radioligand (mHTT aggregates [1])	Bmax (mHTT aggregates [2]; cortex)	specific binding, AD patients (mHTT aggregates [1]; cortex brain sections from AD patients)	specific binding, HD donors (mHTT aggregates [1]; frontal cortical sections from HD donors)	specific binding, CTRL tissue (mHTT aggregates [1]; frontal cortical sections, healthy subjects (CTRL))	binding to healthy control or Alzheimer's disease brain sections (mHTT aggregates [1]; human post-mortem brain sections)	binding density to juvenile HD brain (mHTT aggregates [1]; juvenile HD sample (one case) vs adult-onset HD brains)	white matter binding (mHTT aggregates [1]; post-mortem human brain, white matter)	binding to WT brain sections (mHTT aggregates [2]; WT mouse brain sections, only detectable above LLoQ (0.5 fmol/mg tissue) at 3 nM and 10 nM)	Bmax (concentration of specific binding sites) (mHTT aggregates [2]; cortex, 12-month-old HOM zQ175)
COc1ccc(NC(=O)c2ccn3c(n2)nc2ccccc23)cn1 [[^3H]-Comparative Compound 3, reference compound]	no HD binding was detectable; also recorded: failed to reveal HD binding	169 fmol/mg								
COc1ccc(COc2ccc3c(c2)CN(c2ccc(=O)n(C)n2)C3=O)nc1 [[^3H]-Compound 1-6]	significant specific HD binding was detectable; also recorded: binds selectively to human HD brain sections	448 fmol/mg	0.1±0.0 fmol/mg tissue	0.8±0.2 fmol/mg tissue	0.0±0.0 fmol/mg tissue	little to no binding	highest binding density	≤ 0.5 fmol/mg tissue	minor	448.6 fmol/mg tissue
